The text below walks through data of PubChem BioAssay (NCI).

The structures appear in SMILES notation.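 How tested: cells in 96-well plates exposed to compound for 48 hours at five concentrations. GI50 is the concentration that inhibits growth by half. TGI marks complete inhibition of growth.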 A value given as a limit tells only on which side of the number the result lay.

Common to all, as to experiment: DTP human tumour cell line panel, 48 h
The test system of experiment [1] is MDA-N.
Experiment [2] has as its system DMS 273 small cell lung.
Experiment [3] has as its system HOP-18 NSCLC.
For experiment [4], the system named is LXFL 529 NSCLC.
The test system of experiment [5] is KM20L2 colon.
Experiment [6] deals with M19-MEL melanoma.
Experiment [7] relates to DLD-1 colon.
Experiment [8] has as its system XF 498 CNS.

For orientation: TGI means the concentration giving total growth inhibition. Lower therefore signals more potent growth arrest. Take `COCOc1ccc(C2(O)Oc3cc(OCOC)ccc3C2C)c(O)c1` (stereo not drawn): the concentration for total growth inhibition (TGI) in experiment [1] turned out to be 28.7 µM. In other words, the double-digit micromolar range.

`COC1=C(Br)C(=O)c2nc(C)ccc2C1=O`: the concentration for total growth inhibition (TGI) is 31.8 µM in experiment [2]; 30.9 µM in experiment [3]; 16.7 µM in experiment [4]; 33.3 µM in experiment [5]; 27.8 µM in experiment [6]; 22.2 µM in experiment [7].

A word on the GI50: it is the concentration giving 50% growth inhibition. Take `N.N.NCCCCCCCCCN.O=C([O-])CC(=O)[O-].O=C([O-])CC(=O)[O-].[Pt+4].[Pt+4]`: the GI50 in experiment [2], in experiment [3], in experiment [4], in experiment [5] and in experiment [7] was above 100 µM in each case. Also, the TGI in experiment [2], in experiment [3], in experiment [4], in experiment [5] and in experiment [7] was above 100 µM each time.

Turning to `COC(=O)/C(=C\c1ccc(N(CCC#N)CCC#N)cc1)NC(=O)c1cc([N+](=O)[O-])ccc1Cl`, the TGI in experiment [2], in experiment [3], in experiment [4], in experiment [5], in experiment [6] and in experiment [7] was above 100 µM throughout.

For `Nc1nc(N)nc(CCCc2nc(N)nc(N)n2)n1`, in experiment [1], the TGI was above 100 µM.

`Cc1ccc(Nc2nnc(-c3ccc4c(c3)OCO4)o2)c(C)c1`: the TGI in experiment [1] is above 100 µM.

Consider `O=C(O)C12CC3(C(=O)O)CC(C(=O)O)(CC(C(=O)O)(C1)C3=O)C2=O`, for which the TGI in experiment [1] is above 100 µM.

In the case of `Cc1cccc(N=C2NC(=O)C(CC(=O)Nc3cccc(C)c3C)S2)c1` (stereo not drawn), the TGI in experiment [4], in experiment [5], in experiment [8], in experiment [6] and in experiment [7] was above 100 µM in each case.

Turning to `O=C(OCC(OC(=O)c1ccccc1)C(OC(=O)c1ccccc1)C(OC(=O)c1ccccc1)c1cnn(-c2ccccc2)n1)c1ccccc1` (stereo not drawn), the TGI in experiment [1] was above 100 µM.

As for `Cc1nn(C(=O)c2ccc(Cl)cc2)c2c1C(c1ccc(O)cc1)SC(N)=N2` (stereo not drawn), in experiment [1], the TGI is above 10 µM.

As to `OCCNCCOc1ccc(/C(=C(/Cl)c2ccccc2)c2ccccc2)cc1`, the TGI is 33.4 µM in experiment [3]; 19.7 µM in experiment [4]; 8.56 µM in experiment [5]; 18.2 µM in experiment [8]; 23.5 µM in experiment [6]; 27.4 µM in experiment [7].

In experiment [1], `O/C(=C\c1nc2ccccc2nc1NC12CC3CC(CC(C3)C1)C2)c1ccc(Br)cc1` registered a TGI above 10 µM.

As to `Nc1ccc2[nH]cc(CCC(=O)O)c2c1`, the TGI in experiment [1] is above 100 µM.

With `Oc1ccc(Br)cc1C=Nc1ccc(N=Cc2cc(Br)ccc2O)cc1`, the TGI in experiment [5] and in experiment [7] was above 100 µM in each case.

With `C[C@H]1CCC/C=C/[C@@H]2C[C@H](O)C[C@H]2[C@H](O)[C@@H](SCC(O)CO)CC(=O)O1` (stereo partly drawn), in experiment [1], the GI50 is 25.5 µM and the TGI was above 100 µM.

On to `CC(C)C1=C2CCC3(C)C(CCC4C5C6OCC5(CCC6(C)C)CCC43C)C2(C)CC1` (stereo not drawn), for which the TGI in experiment [1] worked out at 30.2 µM.

Take `C=CCN1CC2CON(C(=O)C(OC)(c3ccccc3)C(F)(F)F)C2C1C(C)C` (stereo not drawn): the GI50 in experiment [1] was 31.8 µg/mL.

In experiment [1], `CC(O)CC(O)(C(F)(F)F)C(F)(F)F` (stereo not drawn) yielded a TGI above 10 µM.

For the compound `Nc1ccc2nc3n(c2c1)C(=O)c1ccccc1-3`, the TGI in experiment [1] is above 100 µM.

`Cc1ccc(S(=O)(=O)NC(=O)NC2=NC(C)(C)N(c3ccc(Cl)c(Cl)c3)C(N)=N2)cc1` displayed a TGI in experiment [1] above 100 µM.

In turn, `CC1=CC(=O)C(C(O)(C(F)(F)F)C(F)(F)F)C(C)(C)C1` (stereo not drawn) came in with a TGI in experiment [1] above 10 µM.

On to `CCOC(CN(C)C(=S)Nc1cccc2ccccc12)OCC`, for which the TGI in experiment [1] was above 10 µM.

Turning to `Cc1ncc([N+](=O)[O-])n1CCNS(=O)(=O)CCCn1ncnc1[N+](=O)[O-]`, the TGI in experiment [1] is above 100 µM.

As for `Nc1nc(N)c2cc(CNc3ccc(C(=O)NC(CC(=O)O)C(=O)O)c(Cl)c3)ccc2n1` (stereo not drawn), in experiment [1], the GI50 was 0.05 µM and the TGI is above 500 µM.

Consider `O=S1(=O)OCCOS(=O)(=O)C1Cl`, for which the TGI in experiment [2], in experiment [3], in experiment [4], in experiment [6] and in experiment [7] was above 100 µM each time.

On to `O=c1c2ccccc2nc(-c2ccccc2)n1NC(=S)Nc1ccccc1`, for which the TGI in experiment [2], in experiment [3], in experiment [4], in experiment [6] and in experiment [7] was above 100 µM each time.

On to `CN(C)CCSc1nccc(-c2cc3ccccc3s2)n1`, for which the TGI in experiment [2] is 34.1 µM; in experiment [4], 30.9 µM; in experiment [7], above 100 µM.
